# Measurements as given in patent US9714236B2, “Compounds and methods for inhibiting JAK” (AstraZeneca AB, priority 2015, dated 2017).
# Assays:
# Type in all cases: biochemical
# [1] = target: recombinant JAK3 (amino acids 781-1124) (Homo sapiens (Human), UniProt P52333); assay: Enzyme inhibition studies, JAK3 (peptide phosphorylation, Caliper LC3000); details: ATP concentration of the tabulated values not stated (assayed at ATP Km 3 μM and at 5 mM)
# Description: (§1) Enzyme inhibition studies were performed using recombinant JAK1 (amino acids 866-1154, Life Technologies, #PV4774, Carlsbad, Calif.), JAK2 (amino acids 831-1132), or JAK3 (amino acids 781-1124) under buffer conditions of 50 mM HEPES pH 7.3, 1 mM DTT, 0.01% Tween® 20, 50 μg/mL BSA, and 10 mM MgCl2. JAK enzyme was expressed as an N-terminal GST fusion in insect cells and purified by glutathione-affinity and size-exclusion chromatographies. […] Phosphorylated and unphosphorylated peptides were separated and quantified by a Caliper LC3000 system (Caliper Life Sciences, MA) for calculating percent inhibition.
# [2] = target: recombinant JAK1 (amino acids 866-1154) (Homo sapiens (Human), UniProt P23458); assay: Enzyme inhibition studies, JAK1 (peptide phosphorylation, Caliper LC3000); details: ATP concentration not given (assayed at ATP Km 55 μM and at 5 mM)
# Chain of recombinant JAK1 (amino acids 866-1154) (P23458 866-1154): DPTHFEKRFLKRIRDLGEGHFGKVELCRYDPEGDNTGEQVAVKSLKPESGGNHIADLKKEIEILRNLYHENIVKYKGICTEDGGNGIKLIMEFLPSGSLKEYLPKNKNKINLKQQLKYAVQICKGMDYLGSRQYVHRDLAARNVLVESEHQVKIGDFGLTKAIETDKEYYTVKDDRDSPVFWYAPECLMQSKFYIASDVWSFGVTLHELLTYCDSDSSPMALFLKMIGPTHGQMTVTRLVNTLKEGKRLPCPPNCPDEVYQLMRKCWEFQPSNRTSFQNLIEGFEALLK
# Description: as §1
# [3] = target: recombinant JAK2 (amino acids 831-1132) (Homo sapiens (Human), UniProt O60674); assay: Enzyme inhibition studies, JAK2 (peptide phosphorylation, Caliper LC3000); details: ATP concentration of the tabulated values not stated (assayed at ATP Km 15 μM and at 5 mM)
# Chain of recombinant JAK2 (amino acids 831-1132) (O60674 831-1132): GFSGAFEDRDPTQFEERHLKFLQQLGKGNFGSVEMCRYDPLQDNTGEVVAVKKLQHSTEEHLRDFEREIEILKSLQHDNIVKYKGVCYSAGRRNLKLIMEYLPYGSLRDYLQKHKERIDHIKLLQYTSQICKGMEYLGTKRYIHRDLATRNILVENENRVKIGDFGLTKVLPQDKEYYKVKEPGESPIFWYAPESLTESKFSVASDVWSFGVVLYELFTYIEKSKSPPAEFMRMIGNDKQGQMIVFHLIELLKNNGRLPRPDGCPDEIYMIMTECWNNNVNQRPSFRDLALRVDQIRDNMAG
# Description: as §1
# Chain of recombinant JAK3 (amino acids 781-1124) (P52333 781-1124): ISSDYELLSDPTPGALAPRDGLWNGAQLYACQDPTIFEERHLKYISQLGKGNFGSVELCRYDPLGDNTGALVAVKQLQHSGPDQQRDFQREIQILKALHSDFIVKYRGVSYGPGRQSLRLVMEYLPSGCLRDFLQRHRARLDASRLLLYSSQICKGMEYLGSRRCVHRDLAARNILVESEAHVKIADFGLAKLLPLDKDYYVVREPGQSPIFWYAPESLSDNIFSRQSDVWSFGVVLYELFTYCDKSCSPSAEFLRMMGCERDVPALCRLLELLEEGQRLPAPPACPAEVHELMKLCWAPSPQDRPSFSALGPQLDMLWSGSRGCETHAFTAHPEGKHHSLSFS
Structure (SMILES),IC50 [1] [µM],IC50 [2] [µM],IC50 [3] [µM]
"COc1nn(C)cc1Nc1ncc(C)c(-c2c[nH]c3c(NC(=O)[C@@H](C)N4CCN(C)[C@H](C)C4)cccc23)n1 [Example 18, (2R)-2-[(3R)-3,4-dimethylpiperazin-1-yl]-N-(3-{2-[(3-methoxy-1-methyl-1H-pyrazol-4-yl)amino]-5-methylpyrimidin-4-yl}-1H-indol-7-yl)propanamide]",> 30,0.057,17.3
"COc1nn(C)cc1Nc1ncc(C)c(-c2c[nH]c3c(NC(=O)[C@@H](C)N4CCN(C)C[C@@H]4C)cccc23)n1 [Example 19, (2R)-2-[(2S)-2,4-dimethylpiperazin-1-yl]-N-(3-{2-[(3-methoxy-1-methyl-1H-pyrazol-4-yl)amino]-5-methylpyrimidin-4-yl}-1H-indol-7-yl)propanamide]",> 30,0.296,> 30
"CCOc1nn(C)cc1Nc1ncc(C)c(-c2c[nH]c3c(NC(=O)[C@@H](C)N4CCN(CC)CC4)cccc23)n1 [Example 20, (2R)-N-(3-{2-[(3-ethoxy-1-methyl-1H-pyrazol-4-yl)amino]-5-methylpyrimidin-4-yl}-1H-indol-7-yl)-2-(4-ethylpiperazin-1-yl)propanamide]",> 30,0.051,17.2
"CCOc1nn(C)cc1Nc1ncc(C)c(-c2c[nH]c3c(NC(=O)[C@@H](C)N4CCN(CCOC)CC4)cccc23)n1 [Example 21, (2R)-N-(3-{2-[(3-ethoxy-1-methyl-1H-pyrazol-4-yl)amino]-5-methylpyrimidin-4-yl}-1H-indol-7-yl)-2-[4-(2-methoxyethyl)piperazin-1-yl]propanamide]",> 30,0.184,> 30
"CCOc1nn(C)cc1Nc1ncc(C)c(-c2c[nH]c3c(NC(=O)[C@@H](C)N4CCN(C)C[C@@H]4C)cccc23)n1 [Example 22, (2R)-2-[(2S)-2,4-dimethylpiperazin-1-yl]-N-(3-{2-[(3-ethoxy-1-methyl-1H-pyrazol-4-yl)amino]-5-methylpyrimidin-4-yl}-1H-indol-7-yl)propanamide]",> 30,0.49,> 30
"CCOc1nn(C)cc1Nc1ncc(C)c(-c2c[nH]c3c(NC(=O)[C@@H](C)N4CCN(C)C[C@H]4C)cccc23)n1 [Example 23, (2R)-2-[(2R)-2,4-dimethylpiperazin-1-yl]-N-(3-{2-[(3-ethoxy-1-methyl-1H-pyrazol-4-yl)amino]-5-methylpyrimidin-4-yl}-1H-indol-7-yl)propanamide]",> 30,0.029,25.7
"CCOc1nn(C)cc1Nc1ncc(C)c(-c2c[nH]c3c(NC(=O)[C@@H](C)N4CCN(C)[C@H](C)C4)cccc23)n1 [Example 24, (2R)-2-[(3R)-3,4-dimethylpiperazin-1-yl]-N-(3-{2-[(3-ethoxy-1-methyl-1H-pyrazol-4-yl)amino]-5-methylpyrimidin-4-yl}-1H-indol-7-yl)propanamide]",> 30,0.113,> 30
"COc1nn(C)cc1Nc1ncc(F)c(-c2c[nH]c3c(NC(=O)[C@@H](C)N4CCN(C)CC4)cccc23)n1 [Example 25, (2R)-N-(3-{5-Fluoro-2-[(3-methoxy-1-methyl-1H-pyrazol-4-yl)amino]pyrimidin-4-yl}-1H-indol-7-yl)-2-(4-methylpiperazin-1-yl)propanamide]",> 30,0.019,6.62
"COc1nn(C)cc1Nc1nccc(-c2c[nH]c3c(NC(=O)[C@@H](C)N4CCN(C)[C@@H](C)C4)cccc23)n1 [Example 26, (2R)-2-[(3S)-3,4-dimethylpiperazin-1-yl]-N-(3-{2-[(3-methoxy-1-methyl-1H-pyrazol-4-yl)amino]pyrimidin-4-yl}-1H-indol-7-yl)propanamide]",> 30,0.069,16.7
"COCCN1CCN([C@H](C)C(=O)Nc2cccc3c(-c4ccnc(Nc5cn(C)nc5OC)n4)c[nH]c23)CC1 [Example 27, (2R)-2-[4-(2-methoxyethyl)piperazin-1-yl]-N-(3-{2-[(3-methoxy-1-methyl-1H-pyrazol-4-yl)amino]pyrimidin-4-yl}-1H-indol-7-yl)propanamide]",> 30,0.575,> 30
CCN1CCN([C@H](C)C(=O)Nc2cccc3c(-c4ccnc(Nc5cn(C)nc5OC)n4)c[nH]c23)CC1 [Example 28],> 30,0.106,11.8
"COc1nn(C)cc1Nc1nccc(-c2c[nH]c3c(NC(=O)[C@@H](C)N4CCN(C)[C@H](C)C4)cccc23)n1 [Example 30, (2R)-2-[(3R)-3,4-dimethylpiperazin-1-yl]-N-(3-{2-[(3-methoxy-1-methyl-1H-pyrazol-4-yl)amino]pyrimidin-4-yl}-1H-indol-7-yl)propanamide]",> 30,0.304,> 30
"CCOc1nn(C)cc1Nc1ncc(C)c(-c2c[nH]c3c(NC(=O)[C@@H](C)N4CCN(C)[C@@H](C)C4)cccc23)n1 [Example 31a, (2R)-2-[(3S)-3,4-dimethylpiperazin-1-yl]-N-(3-{2-[(3-ethoxy-1-methyl-1H-pyrazol-4-yl)amino]-5-methylpyrimidin-4-yl}-1H-indol-7-yl)propanamide]",> 30,0.015,19.8
"CCOc1nn(C)cc1Nc1ncc(C)c(-c2c[nH]c3c(NC(=O)[C@H](C)N4CCN(C)[C@@H](C)C4)cccc23)n1 [Example 31b, (2S)-2-[(3S)-3,4-dimethylpiperazin-1-yl]-N-(3-{2-[(3-ethoxy-1-methyl-1H-pyrazol-4-yl)amino]-5-methylpyrimidin-4-yl}-1H-indol-7-yl)propanamide]",> 30,0.454,> 30
"COc1nn(C)cc1Nc1ncc(C)c(-c2c[nH]c3c(NC(=O)[C@H](C)N4CCN(C)CC4)cccc23)n1 [Example 33, (2S)-N-(3-{2-[(3-methoxy-1-methyl-1H-pyrazol-4-yl)amino]-5-methylpyrimidin-4-yl}-1H-indol-7-yl)-2-(4-methylpiperazin-1-yl)propanamide]",> 30,0.272,> 30
"COc1nn(C)cc1Nc1ncc(C)c(-c2c[nH]c3c(NC(=O)[C@@H](C)N4CCN(C)CC4)cccc23)n1 [Example 34, (2R)-N-(3-{2-[(3-Methoxy-1-methyl-1H-pyrazol-4-yl)amino]-5-methylpyrimidin-4-yl}-1H-indol-7-yl)-2-(4-methylpiperazin-1-yl)propanamide]",> 30,0.01,5.37
"CCOc1nn(C)cc1Nc1ncc(C)c(-c2c[nH]c3c(NC(=O)[C@@H](C)N4CCN(C)CC4)cccc23)n1 [Example 35, (2R)-N-(3-{2-[(3-ethoxy-1-methyl-1H-pyrazol-4-yl)amino]-5-methylpyrimidin-4-yl}-1H-indol-7-yl)-2-(4-methylpiperazin-1-yl)propanamide]",> 30,0.02,17
"COc1nn(C)cc1Nc1ncc(Cl)c(-c2c[nH]c3c(NC(=O)[C@@H](C)N4CCN(C)CC4)cccc23)n1 [Example 36, (2R)-N-(3-{5-chloro-2-[(3-methoxy-1-methyl-1H-pyrazol-4-yl)amino]pyrimidin-4-yl}-1H-indol-7-yl)-2-(4-methylpiperazin-1-yl)propanamide]",19.1,0.007,1.76
"COc1nn(C)cc1Nc1ncc(Br)c(-c2c[nH]c3c(NC(=O)[C@@H](C)N4CCN(C)CC4)cccc23)n1 [Example 37, (2R)-N-(3-{5-bromo-2-[(3-methoxy-1-methyl-1H-pyrazol-4-yl)amino]pyrimidin-4-yl}-1H-indol-7-yl)-2-(4-methylpiperazin-1-yl)propanamide]",15.4,0.008,1.58
"COc1nn(C)cc1Nc1ncc(C)c(-c2c[nH]c3c(NC(=O)[C@@H](C)N4CCN(C)C[C@H]4C)cccc23)n1 [Example 38, (2R)-2-[(2R)-2,4-dimethylpiperazin-1-yl]-N-(3-{2-[(3-methoxy-1-methyl-1H-pyrazol-4-yl)amino]-5-methylpyrimidin-4-yl}-1H-indol-7-yl)propanamide]",> 30,0.013,6.48
"CCOc1nn(C)cc1Nc1ncc(F)c(-c2c[nH]c3c(NC(=O)[C@@H](C)N4CCN(C)CC4)cccc23)n1 [Example 39, (2R)-N-(3-{2-[(3-ethoxy-1-methyl-1H-pyrazol-4-yl)amino]-5-fluoropyrimidin-4-yl}-1H-indol-7-yl)-2-(4-methylpiperazin-1-yl)propanamide]",> 30,0.055,25.5
"CCOc1nn(C)cc1Nc1ncc(Cl)c(-c2c[nH]c3c(NC(=O)[C@@H](C)N4CCN(C)CC4)cccc23)n1 [Example 40, (2R)-N-(3-{5-chloro-2-[(3-ethoxy-1-methyl-1H-pyrazol-4-yl)amino]pyrimidin-4-yl}-1H-indol-7-yl)-2-(4-methylpiperazin-1-yl)propanamide]",> 30,0.024,8.93
"Cc1cnc(Nc2cn(C)nc2C)nc1-c1c[nH]c2c(NC(=O)[C@@H](C)N3CCN(C)CC3)cccc12 [Example 41, (2R)-N-(3-{2-[(1,3-dimethyl-1H-pyrazol-4-yl)amino]-5-methylpyrimidin-4-yl}-1H-indol-7-yl)-2-(4-methylpiperazin-1-yl)propanamide]",> 30,< 0.005,2.58
